Measured values reported in patent publication US20240166626A1, “Compounds and Methods for Preventing, Treating, or Ameliorating Airway Disease” (THOMAS JEFFERSON UNIVERSITY, priority 2021, published 2024).

Biological target: GRK5 (Homo sapiens, UniProt P34947)
Assay: In vitro tubulin phosphorylation assay with purified GRK5
Type: biochemical
Settings: 10 μM DFPQ, FIG. 3C
Protocol: FIGS. 3A-3D: DFPQ inhibits GRK-mediated phosphorylation of the β2AR. FIG. 3A: Representative time course of agonist promoted phosphorylation of the β2AR. […] Cells were lysed and the FLAG-β2AR was immunoprecipitated. Phosphorylation at […] and 356 was analyzed by western blot using a pSer^355/356 antibody while total β2AR was measured using a β2AR C-terminal antibody. The western blot is representative of at least 3 experiments and is quantified in FIG. 3B. FIG. 3C: […] FIG. 3D: Bar graphs represent pixel densitometry of radiolabeled tubulin at the 60 min timepoint from 4 experiments. […]® ADRB2 cells (DiscoveRx) were maintained with the AssayCompleteTM Cell Culture kit (DiscoveRx catalog #92-[…]). […] Cells were read every three minutes for 18 minutes on a PolarStar Optima plate reader (BMG) to establish peak signal. […] Luminescence was determined at room temperature (23-25° C.) on a PolarStar Optima plate reader (BMG). […] Relative assay bias was calculated from the ratio of normalized cAMP and arrestin recruitment responses. […] BRET was measured using a Tecan Infinite F500 microplate reader. […] Bound [35 S]GTPγS was collected by rapid filtration on GF/B filters, washed 4 times with 4 ml of cold GTPγS wash buffer and analyzed by liquid scintillation counting. […] Immunoprecipitated proteins were separated by SDS-PAGE and analyzed by western blot using a β2AR C-terminal tail or phospho-specific antibody. […]

Sequence of GRK5 (P34947 whole entry, species assumed): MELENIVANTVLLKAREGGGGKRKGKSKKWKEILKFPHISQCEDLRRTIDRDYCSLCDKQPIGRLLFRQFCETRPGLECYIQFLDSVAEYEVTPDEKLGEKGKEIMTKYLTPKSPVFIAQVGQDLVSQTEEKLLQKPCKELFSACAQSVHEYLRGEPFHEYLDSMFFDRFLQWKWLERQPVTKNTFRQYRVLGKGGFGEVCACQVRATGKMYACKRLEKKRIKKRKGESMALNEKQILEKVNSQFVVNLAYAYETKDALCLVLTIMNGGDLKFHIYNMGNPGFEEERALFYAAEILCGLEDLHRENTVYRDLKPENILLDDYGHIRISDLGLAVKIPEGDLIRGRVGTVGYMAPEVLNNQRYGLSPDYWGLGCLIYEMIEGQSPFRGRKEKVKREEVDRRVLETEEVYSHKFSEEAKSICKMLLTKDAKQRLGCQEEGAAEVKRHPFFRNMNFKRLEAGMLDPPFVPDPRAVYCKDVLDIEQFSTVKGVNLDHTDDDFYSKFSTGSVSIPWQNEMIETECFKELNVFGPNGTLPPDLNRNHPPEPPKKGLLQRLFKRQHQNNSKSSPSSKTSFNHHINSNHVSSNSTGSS

phosphorylation of tubulin by GRK5 (60-minute time course): unaffected
GRK5 autophosphorylation: lack of an effect
SMILES: Fc1ccc(Nc2nc(NC3CCCCC3)c3ccccc3n2)cc1F [DFPQ, N^4-cyclohexyl-N^2-(3,4-difluorophenyl)quinazoline-2,4-diamine]
